Test results taken from US9493484B2, “Heterocyclic compound and use thereof” (Takeda Pharmaceutical Company Limited, priority 2012, dated 2016).

Target: T1, GluR1 flip/stargazin (AMPA receptor) in CHO-K1/GluR1 flip/stargazin-expressing cells (Homo sapiens, UniProt P42261)
T1 construct: expressed in transfected cells; host or cells: CHO-K1
Experiment: AMPA receptor function-enhancing activity of compound, using calcium influx as an index
Assay type: cell-based
Details: test compound final concentration 30 μM with 3 mM glutamic acid, 100% = 3 mM glutamic acid + 300 μM cyclothiazide
Text: Human GluR1 flip cDNA was amplified by PCR method using forward primer […] (SEQ ID NO: 1) and reverse primer […] (SEQ ID NO: 2) artificially synthesized using human brain-derived cDNA (BD Bioscience) as a template. The amplified product was digested with restriction enzymes EcoRI, NotI (TAKARA SHUZO CO. LTD.) and incorporated into the same site of pcDNA3.1(+) (Invitrogen) to construct pcDNA3.1(+)/human GluR1 flip gene. Human stargazin cDNA was amplified by PCR method using forward primer […] (SEQ ID NO: 3) and reverse primer […] (SEQ ID NO: 4) artificially synthesized using human hippocampus cDNA as a template. The amplified product was digested with restriction enzymes XhoI, BamHI (TAKARA SHUZO CO. LTD.) and incorporated into the same site of pcDNA3.1(−) (Invitrogen) to construct pcDNA3.1 Zeo(−)/human stargazing gene.
CHO-K1 cells passaged in a culture medium (Ham's F12 medium (Invitrogen) added with 10% inactivated fetal bovine serum (Morgate) and penicillin, streptomycin (Invitrogen)) were detached using 0.05% trypsin and 0.53 mM EDTA (Invitrogen) diluted with D-PBS(−). The detached cells were suspended in a culture medium, and recovered by centrifugation at 1,000 rpm. The recovered cells were re-suspended in D-PBS(−) and added into 0.4 cm electroporation cuvette (BioRad). pcDNA3.1(+)/human GluR1 flip gene (5 μg) and pcDNA3.1 Zeo(−)/human stargazin gene (15 μg) were added, and introduced into CHO-K1 cells under the conditions of […], […] and using Gene Pulser II (BioRad). The introduced cells were cultured overnight in a culture medium. The next day, using a selection medium (culture medium added with zeocin (Invitrogen) at 250 μg/mL), the cells were plated in a 96 well plate at 250 cells/well. The clones showing drug resistance were selected, and GluR1 flip/stargazin expression clones were selected by an assay method shown below using calcium influx as an index.
CHO-K1/GluR1 flip/stargazin-expressing cells were plated on a 96 well black bottom transparent plate (coaster) at 3×10^4 cells/well, and cultured for 2 days in a CO2 incubator (SANYO ELECTRIC Co. Ltd.) at 37° C. The medium of the cell plate was removed, a calcium indicator (Calcium4 Assay Kit, Molecular Device) dissolved in a liquid obtained by adding 1.25 mM probenecid (Invitrogen) to an assay buffer (140 mM NaCl, 5 mM KCl, 10 mM Glucose, 2 mM CaCl2, 1 mM MgCl2, 10 mM HEPES, pH 7.4, 0.1% BSA (SIGMA)) was added at 100 μL/well, and left in a CO2 incubator at 37° C. for 1 hr. A cell plate was set on CellLux (PerkinElmer), a mixture (50 μL) of 9 mM glutamic acid (final concentration 3 mM) diluted with an assay buffer and a test compound (test compound final concentration 30 μM) was added, and variation in the amount of fluorescence was measured for 2 min. The variation of fluorescence level of a well added with final concentration 3 mM glutamic acid and 300 μM cyclothiazide (TOCRIS, prepared from 100 mM dimethyl sulfoxide solution) was defined as 100%, the variation of fluorescence level of a well containing final concentration 3 mM glutamic acid and 0.33% dimethyl sulfoxide was defined as 0%, and the activity of the m compound was calculated by the following formula. activity (%)=(X−C)/(T−C)×100 T: variation of fluorescence level of well added with final concentration 3 mM of glutamic acid and 300 μM cyclothiazide C: variation of fluorescence level of well added with final concentration 3 mM of glutamic acid alone X: variation of fluorescence level of well added with final concentration 3 mM of glutamic acid and 30 μM test compound

T1 sequence (P42261 19-906 isoform P42261-2 limits assumed): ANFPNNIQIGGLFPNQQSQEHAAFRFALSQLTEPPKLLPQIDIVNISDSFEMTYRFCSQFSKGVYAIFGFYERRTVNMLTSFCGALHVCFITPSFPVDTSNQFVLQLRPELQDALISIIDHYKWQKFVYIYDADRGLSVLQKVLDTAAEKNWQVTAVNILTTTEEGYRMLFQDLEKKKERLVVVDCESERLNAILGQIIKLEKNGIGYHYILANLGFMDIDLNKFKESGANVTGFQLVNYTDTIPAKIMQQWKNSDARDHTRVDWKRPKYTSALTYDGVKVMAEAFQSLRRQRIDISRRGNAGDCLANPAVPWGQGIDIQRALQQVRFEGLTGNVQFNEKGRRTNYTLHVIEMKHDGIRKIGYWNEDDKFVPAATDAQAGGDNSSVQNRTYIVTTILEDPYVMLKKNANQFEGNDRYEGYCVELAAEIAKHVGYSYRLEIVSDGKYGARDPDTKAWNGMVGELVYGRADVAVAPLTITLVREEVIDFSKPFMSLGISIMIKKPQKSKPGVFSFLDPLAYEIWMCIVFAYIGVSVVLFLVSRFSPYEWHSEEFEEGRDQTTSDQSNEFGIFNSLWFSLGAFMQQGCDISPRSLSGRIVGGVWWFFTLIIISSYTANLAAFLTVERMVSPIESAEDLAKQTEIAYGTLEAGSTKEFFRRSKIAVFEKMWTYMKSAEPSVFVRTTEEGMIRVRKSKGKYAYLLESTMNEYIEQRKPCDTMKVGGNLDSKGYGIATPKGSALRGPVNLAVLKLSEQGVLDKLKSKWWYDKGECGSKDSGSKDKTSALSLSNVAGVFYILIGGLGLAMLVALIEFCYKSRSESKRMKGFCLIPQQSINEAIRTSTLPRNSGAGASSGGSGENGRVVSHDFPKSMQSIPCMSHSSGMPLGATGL
T1 sequence (Q9Y698 whole entry partner): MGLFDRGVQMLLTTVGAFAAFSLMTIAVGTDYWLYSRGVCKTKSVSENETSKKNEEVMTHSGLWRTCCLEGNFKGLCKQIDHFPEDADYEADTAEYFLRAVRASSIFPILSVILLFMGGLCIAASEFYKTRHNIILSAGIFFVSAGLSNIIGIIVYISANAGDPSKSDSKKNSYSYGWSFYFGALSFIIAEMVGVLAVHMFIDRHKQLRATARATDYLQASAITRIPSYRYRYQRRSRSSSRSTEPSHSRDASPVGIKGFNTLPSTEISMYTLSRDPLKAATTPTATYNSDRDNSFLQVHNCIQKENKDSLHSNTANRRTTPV

Row | Structure (SMILES) | activity (%)
1 | O=S1(=O)CCN2C(=N1)C1(c3ccc(OCC4CCCO4)cc3)CCC2CC1 (stereo not shown) [Example 38, 9-(4-(tetahydrofuran-2-ylmethoxy)phenyl)-3,4,6,7,8,9-hexahydro-6,9-ethanopyrido[2,1-c][1,2,4]thiadiazine 2,2-dioxide] | 87%
2 | O=S1(=O)CCN2C(=N1)C1(c3ccc(Oc4cc(C(F)(F)F)ccn4)cc3)CCC2CC1 [Example 15, 9-(4-((4-(trifluoromethyl)pyridin-2-yl)oxy)phenyl)-3,4,6,7,8,9-hexahydro-6,9-ethanopyrido[2,1-c][1,2,4]thiadiazine 2,2-dioxide] | 92%
3 | O=S1(=O)CCN2CCCN(c3ccc(Oc4ccc(Cl)cc4)cc3)C2=N1 [Example 45, 9-(4-(4-chlorophenoxy)phenyl)-3,4,6,7,8,9-hexahydropyrimido[2,1-c][1,2,4]thiadiazine 2,2-dioxide] | 77%
4 | CC(C)COc1ccc(C23CCC(CC2)N2CCS(=O)(=O)N=C23)cc1 [Example 28, 9-(4-isobutoxyphenyl)-3,4,6,7,8,9-hexahydro-6,9-ethanopyrido[2,1-c][1,2,4]thiadiazine 2,2-dioxide] | 91%

Next, values leading:

Row | activity (%) | Structure (SMILES)
5 | 74% | CC(F)(F)c1cccc(Oc2ccc(C34CCC(CC3)N3CCS(=O)(=O)N=C34)cc2)c1 [Example 2, 9-(4-(3-(1,1-difluoroethyl)phenoxy)phenyl)-3,4,6,7,8,9-hexahydro-6,9-ethanopyrido[2,1-c][1,2,4]thiadiazine 2,2-dioxide]
6 | 87% | Cc1ccc(Oc2ccc(C34CCC(CC3)N3CCS(=O)(=O)N=C34)cc2)cc1C#N [Example 47, 5-(4-(2,2-dioxido-3,4,7,8-tetrahydro-6,9-ethanopyrido[2,1-c][1,2,4]thiadiazin-9(6H)-yl)phenoxy)-2-methylbenzonitrile]
7 | 61% | O=S1(=O)CCN2C(=N1)C1(c3ccc(Oc4ncccn4)cc3)CCC2CC1 [Example 23, 9-(4-(pyrimidin-2-yloxy)phenyl)-3,4,6,7,8,9-hexahydro-6,9-ethanopyrido[2,1-c][1,2,4]thiadiazine 2,2-dioxide]
8 | 22% | O=S1(=O)CCN2C(=N1)C1(c3ccc(OCc4cccc(Cl)c4)cc3)CCC2CC1 [Example 30, 9-(4-((3-chlorobenzyl)oxy)phenyl)-3,4,6,7,8,9-hexahydro-6,9-ethanopyrido[2,1-c][1,2,4]thiadiazine 2,2-dioxide]
9 | 26% | O=S1(=O)CCN2C(=N1)C1(c3ccc(Oc4ccc(Cl)cc4)cc3)CCC2CC1 [Example 1, 9-(4-(4-chlorophenoxy)phenyl)-3,4,6,7,8,9-hexahydro-6,9-ethanopyrido[2,1-c][1,2,4]thiadiazine 2,2-dioxide]
10 | 87% | N#Cc1cccc(Oc2ccc(C34CCC(CC3)N3CCS(=O)(=O)N=C34)cc2)c1 [Example 16, 3-(4-(2,2-dioxido-3,4,7,8-tetrahydro-6,9-ethanopyrido[2,1-c][1,2,4]thiadiazin-9(6H)-yl)phenoxy)benzonitrile]
